Consider 19 molecules from US10081606B2, “Heteroaryl compounds and uses thereof” (Celgene CAR LLC, priority 2010, dated 2018).

One test relates to A431 cells (WT EGFR). Description: Cell proliferation (CellTiter Glo, 72 hr), A431. Type of test: cell-based. Conditions: Homo sapiens, A-431. The method, then: (§1) A431 human epidermoid carcinoma, H1975 human NSCLC and HCC827 human NSCLC adenocarcinoma cells were obtained from the American Type Culture Center (Manassas, Va.). A431 cells were grown in DMEM (Invitrogen, Carlsbad, Calif.) supplemented with 10% FBS (HyClone, South Logan, Utah) and 1% Penicillin-Streptomycin (P/S, Lonza, Walkersville, Md.).
(§2) Growth inhibition (GI50) values were determined by Graph Pad Prism.

Test [1] relates to H1975 cells (EGFR L858R/T790M). Description: Cell proliferation (CellTiter Glo, 72 hr), H1975. Conditions: for GI50: Homo sapiens, NCI-H1975; for Ratio WT/mutant: proliferation GI50, WT (A431) vs H1975. It counts as cell-based, human. The method, then: as §1, §2
On the technique in general: In ATP-based viability assays light output follows the ATP content of the culture.

Test [2] deals with HCC827 cells (EGFR delE746-A750). Description: Cell proliferation (CellTiter Glo, 72 hr), HCC827. Type of test: cell-based, human. To be noted: for GI50: Homo sapiens; for Ratio WT/mutant: proliferation GI50, WT (A431) vs HCC827. Here is the method: as §1, §2
A further test concerns the target pEGFR in H1975 cells (Homo sapiens (Human), UniProt P00533, L858R/T790M). To be noted: 500 nM for 1 hr, 0-24 hr.
Test [3] deals with T1, EGFR T790M/L858R (Homo sapiens (Human), UniProt P00533, L858R/T790M). Conditions: MS analysis.
The target of test [4] is EGFR L858R/T790M (H1975 cells) (Homo sapiens (Human), UniProt P00533, L858R/T790M). Description: EGFR signaling immunoblot (1 hr) in H1975 cells. It counts as cell-based. To be noted: signaling EC50, WT (A431) vs H1975. The method, then: as §1
(§3) All primary antibodies were obtained from Cell Signaling (Danvers, Mass.) and used at 1:1000. Secondary antibodies were used at 1:10,000. Goat anti-mouse IgG IRDye 800CW antibody was obtained from LiCor Biosciences (Lincoln, Nebr.) and goat anti-rabbit IgG Alexa Fluor 680 was obtained from Invitrogen.
(§4) Cells were grown in 12-well plates (Corning, Coring, N.Y.) to 90% confluence and then incubated in low-serum (0.1% FBS) media for 16-18 hr. […] A431 cells were then stimulated with 50 ng/ml EGF (Peprotech, Rocky Hill, N.J.) for 15 min. After treatment, cell monolayers were washed with cold PBS (Invitrogen) and immediately lysed by scrapping into 60 uL cold Cell Extraction Buffer (Invitrogen) supplemented with Complete Protease inhibitors (Roche, Indianapolis, Ind.) and PhosphoSTOP (Roche) phosphatase inhibitors.
(§5) Phospho-protein signals were quantitated using Odyssey Infrared Imaging (Li-Cor Biosciences).
Blots were normalized as indicated above. […] Normalized data was fitted using a sigmoidal curve analysis program (Graph Pad Prism version 5) with variable Hill slope to determine the EC50 values.

Test [5] concerns the target EGFR delE746-A750 (HCC827 cells) (Homo sapiens (Human), UniProt P00533, DEL746-750). Description: EGFR signaling immunoblot (1 hr) in HCC827 cells. Type of test: cell-based. Conditions: signaling EC50, WT (A431) vs HCC827. Here is the method: as §1, §3, §4, §5
Blots were normalized as indicated above. […]
(A western blot detects proteins with antibodies after separation by electrophoresis.)

In test [6] the target is T1, EGFR T790M/L858R. Description: Omnia biochemical assay, EGFR-T790M/L858R. To be noted: biochemical IC50, WT EGFR vs T790M/L858R.
Method: Kinase reactions were started with the addition of 45 μL of the ATP/Tyr-Sox peptide substrate mix and monitored every 71 seconds for 60 minutes at λex360/λem485 in a Synergy^4 plate reader from BioTek (Winooski, Vt.).
[7] abbreviates: A431 cells, 72 hr, read-out: WT EGFR GI50.
[8] abbreviates: H1975 cells, 72 hr, read-out: H1975 GI50.
Where [9] appears, read: HCC827 cells, 72 hr, read-out: HCC827 GI50.

SMILES strings stand for the structures. Read-outs that look alike come from different tables or passages of the source.

By GI50 is commonly meant the concentration giving 50% growth inhibition. `C=CC(=O)Nc1cccc(Oc2nc(Nc3ccccc3OC)ncc2C(F)(F)F)c1` [Compound I-2, N-(3-(2-(2-methoxyphenylamino)-5-(trifluoromethyl)pyrimidin-4-yloxy)phenyl)acrylamide]: the 50% growth inhibitory concentration (GI50) was greater than 1000 nM in the test with A431 cells (WT EGFR) (setting [7]), greater than 1000 nM in test [1] (setting [8]) and 100 to 500 nM in test [2] (setting [9]). For the same molecule, the “duration of action after washout (pEGFR inhibition)” value at pEGFR in H1975 cells is listed as “prolonged duration of action”. The “covalent modification of EGFR T790M/L858R” value at EGFR T790M/L858R [3] was “covalently modify”.
`C=CC(=O)Nc1cccc(Nc2nc(Nc3ccc(OC)c(OC)c3OC)ncc2Cl)c1` [Compound I-4, N-(3-(5-chloro-2-(2,3,4-trimethoxyphenylamino)pyrimidin-4-ylamino)phenyl)acrylamide]: the GI50 is greater than 1000 nM in the test with A431 cells (WT EGFR) (setting [7]), 100 to 500 nM in test [1] (setting [8]) and 100 to 500 nM in test [2] (setting [9]).
With `C=CC(=O)Nc1cccc(Nc2nc(Nc3ccc(OC)c(OC)c3OC)ncc2Br)c1` [Compound I-5, N-(3-(5-bromo-2-(2,3,4-trimethoxyphenylamino)pyrimidin-4-ylamino)phenyl)acrylamide], the “Ratio WT/mutant” value is greater than 50 in test [4], greater than 1 in test [1] and greater than 20 in test [2]. Further, the concentration for 50% growth inhibition (GI50) in the test with A431 cells (WT EGFR) (setting [7]) is greater than 1000 nM; in test [1] (setting [8]), greater than 1000 nM; in test [2] (setting [9]) it was 100 to 500 nM.
Consider `C=CC(=O)Nc1cccc(Oc2nc(Nc3cccc(OC)c3OC)ncc2Br)c1` [Compound I-6, N-(3-(5-bromo-2-(2,3-dimethoxyphenylamino)pyrimidin-4-yloxy)phenyl)acrylamide], for which the concentration for 50% growth inhibition (GI50) with A431 cells (WT EGFR) (setting [7]) is greater than 1000 nM; in test [1] (setting [8]) it was 500 to 1000 nM; in test [2] (setting [9]), 500 to 1000 nM. The “Ratio WT/mutant” value in test [1] and in test [2] was greater than 1 in each case.
For `C=CC(=O)Nc1cccc(Oc2nc(Nc3ccc(OC)c(OC)c3OC)ncc2Br)c1` [Compound I-8, N-(3-(5-bromo-2-(2,3,4-trimethoxyphenylamino)pyrimidin-4-yloxy)phenyl)acrylamide], the results for the GI50 (in the test with A431 cells (WT EGFR) (setting [7]); in test [1] (setting [8]); in test [2] (setting [9])) were greater than 1000 nM, greater than 1000 nM and 100 to 500 nM, respectively.
Turning to `C=CC(=O)Nc1cccc(Oc2nc(Nc3ccc(OC)cc3OC)ncc2C(F)(F)F)c1` [Compound I-9, N-(3-(2-(2,4-dimethoxyphenylamino)-5-(trifluoromethyl)pyrimidin-4-yloxy)phenyl)acrylamide], the concentration for 50% growth inhibition (GI50) with A431 cells (WT EGFR) (setting [7]) is greater than 1000 nM; in test [1] (setting [8]), 100 to 500 nM; in test [2] (setting [9]), 100 to 500 nM.
Take `C=CC(=O)Nc1cccc(Oc2nc(Nc3ccc(OC)c(OC)c3OC)ncc2C(F)(F)F)c1` [Compound I-10, N-(3-(5-(trifluoromethyl)-2-(2,3,4-trimethoxyphenylamino)pyrimidin-4-yloxy)phenyl)acrylamide]: the “Ratio WT/mutant” value in test [4] is greater than 50; in test [1] it was greater than 10; in test [2], greater than 10. Also, the GI50 is greater than 1000 nM with A431 cells (WT EGFR) (setting [7]), 100 to 500 nM in test [1] (setting [8]) and 100 to 500 nM in test [2] (setting [9]).
As for `C=CC(=O)Nc1cccc(Nc2nc(Nc3ccc(OC)c(OC)c3OC)ncc2C(F)(F)F)c1` [Compound I-11, N-(3-(5-(trifluoromethyl)-2-(2,3,4-trimethoxyphenylamino)pyrimidin-4-ylamino)phenyl)acrylamide], the “Ratio WT/mutant” value in test [4] is on record as greater than 50; in test [5] it was greater than 5; in test [1], greater than 10; in test [2], greater than 40. Also, the 50% growth inhibitory concentration (GI50) was greater than 1000 nM in the test on A431 cells (WT EGFR) (setting [7]); greater than 1000 nM with A431 cells (WT EGFR) (Table 2, A431 cells (WT EGFR), read-out: Comparative GI50, A431); 100 to 500 nM in test [1] (setting [8]); 100 to 500 nM in test [1] (Table 2, H1975 cells (L858R/T790M), read-out: Comparative GI50, H1975); 10 to 100 nM in test [2] (setting [9]); 10 to 100 nM in test [2] (Table 2, HCC827 cells (delE746-A750), read-out: Comparative GI50, HCC827).
Consider `C=CC(=O)Nc1cccc(Oc2nc(Nc3ccc(OC)cc3OC)ncc2Br)c1` [Compound I-13, N-(3-(5-bromo-2-(2,4-dimethoxyphenylamino)pyrimidin-4-yloxy)phenyl)acrylamide], for which the concentration for 50% growth inhibition (GI50) is greater than 1000 nM with A431 cells (WT EGFR) (setting [7]), 500 to 1000 nM in test [1] (setting [8]) and 100 to 500 nM in test [2] (setting [9]).
As for `C=CC(=O)Nc1cccc(Nc2nc(Nc3cccc(OC)c3OC)ncc2Br)c1` [Compound I-14, N-(3-(5-bromo-2-(2,3-dimethoxyphenylamino)pyrimidin-4-ylamino)phenyl)acrylamide], at EGFR T790M/L858R [6], the “Ratio WT/mutant” value was greater than 50.
With `C=CC(=O)Nc1cccc(Oc2nc(Nc3ccc(OC)cc3OC)ncc2Cl)c1` [Compound I-15, N-(3-(5-chloro-2-(2,4-dimethoxyphenylamino)pyrimidin-4-yloxy)phenyl)acrylamide], the GI50 in the test on A431 cells (WT EGFR) (setting [7]) is greater than 1000 nM; in test [1] (setting [8]) it was greater than 1000 nM; in test [2] (setting [9]) it was 100 to 500 nM.
On to `C=CC(=O)Nc1cccc(Nc2nc(Nc3cccc(OC)c3OC)ncc2C(F)(F)F)c1` [Compound I-16, N-(3-(2-(2,3-dimethoxyphenylamino)-5-(trifluoromethyl)pyrimidin-4-ylamino)phenyl)acrylamide], for which the 50% growth inhibitory concentration (GI50) with A431 cells (WT EGFR) (setting [7]) was greater than 1000 nM; in test [1] (setting [8]), greater than 1000 nM; in test [2] (setting [9]), 500 to 1000 nM.
With `C=CC(=O)Nc1cccc(Oc2nc(Nc3cccc(OC)c3OC)ncc2Cl)c1` [Compound I-17, N-(3-(5-chloro-2-(2,3-dimethoxyphenylamino)pyrimidin-4-yloxy)phenyl)acrylamide], the “Ratio WT/mutant” value at EGFR T790M/L858R [6] is listed as greater than 35.
In the case of `C=CC(=O)Nc1cccc(Nc2nc(Nc3ccccc3OC)ncc2Cl)c1` [Compound I-18, N-(3-(5-chloro-2-(2-methoxyphenylamino)pyrimidin-4-ylamino)phenyl)acrylamide], the 50% growth inhibitory concentration (GI50) with A431 cells (WT EGFR) (setting [7]) was greater than 1000 nM; in test [1] (setting [8]), greater than 1000 nM; in test [2] (setting [9]) it was 500 to 1000 nM. Also, the “Ratio WT/mutant” value in test [1] is greater than 1; in test [2], greater than 5.
On to `C=CC(=O)Nc1cccc(Oc2nc(Nc3ccccc3OC)ncc2F)c1` [Compound I-19, N-(3-(5-fluoro-2-(2-methoxyphenylamino)pyrimidin-4-yloxy)phenyl)acrylamide], for which the GI50 was greater than 1000 nM in the test with A431 cells (WT EGFR) (setting [7]), greater than 1000 nM in test [1] (setting [8]) and 100 to 500 nM in test [2] (setting [9]). In addition, the “Ratio WT/mutant” value in test [1] is listed as greater than 1; in test [2] it was greater than 10.
Take `C=CC(=O)Nc1cccc(Nc2nc(Nc3ccc(OC)cc3OC)ncc2Br)c1` [Compound I-20, N-(3-(5-bromo-2-(2,4-dimethoxyphenylamino)pyrimidin-4-ylamino)phenyl)acrylamide]: the figures for the GI50 (in the test with A431 cells (WT EGFR) (setting [7]); in test [1] (setting [8]); in test [2] (setting [9])) were greater than 1000 nM, greater than 1000 nM and 100 to 500 nM, respectively. In addition, the entries for the “Ratio WT/mutant” value in test [1] and in test [2] were greater than 1 and greater than 10, respectively.
`C=CC(=O)Nc1cccc(Nc2nc(Nc3ccc(OC)cc3OC)ncc2Cl)c1` [Compound I-21, N-(3-(5-chloro-2-(2,4-dimethoxyphenylamino)pyrimidin-4-ylamino)phenyl)acrylamide]: the “Ratio WT/mutant” value in test [4] is given as greater than 5; in test [1], greater than 1; in test [2], greater than 5. Besides, the GI50 in the test on A431 cells (WT EGFR) (setting [7]) is greater than 1000 nM; in test [1] (setting [8]), greater than 1000 nM; in test [2] (setting [9]) it was 500 to 1000 nM.
Take `C=CC(=O)Nc1cccc(Nc2nc(Nc3ccccc3OC)ncc2Br)c1` [Compound I-22, N-(3-(5-bromo-2-(2-methoxyphenylamino)pyrimidin-4-ylamino)phenyl)acrylamide]: the GI50 was greater than 1000 nM with A431 cells (WT EGFR) (setting [7]), 500 to 1000 nM in test [1] (setting [8]) and 500 to 1000 nM in test [2] (setting [9]).
As for `C=CC(=O)Nc1cccc(Oc2nc(Nc3cccc(OC)c3OC)ncc2C(F)(F)F)c1` [Compound I-23, N-(3-(2-(2,3-dimethoxyphenylamino)-5-(trifluoromethyl)pyrimidin-4-yloxy)phenyl)acrylamide], the 50% growth inhibitory concentration (GI50) (with A431 cells (WT EGFR) (setting [7]); in test [1] (setting [8]); in test [2] (setting [9])) was greater than 1000 nM throughout.
